Test system: modified HGP-30 (mH, SEQ ID NO:6)
Assay: Isotype analysis (ELISA) of anti-mH antibody in sera of immunized mice
Assay type: in vivo
Conditions: day 28 pool
Experimental: Mice in groups (5-10 animals per group as designated) are immunized with the LEAPS constructs (25 μg/dose) of SEQ ID NO's:37, 38 and 39, in 0.2 mL emulsified 1:1 with adjuvant (Seppic's ISA-51 or Corixa's microfluidized MPL S/E) on days 0 and 14. Mice are evaluated by Delayed Type of Hypersensitivity (DTH) by inoculation on day 26 with 20 μl of a solution of saline or mH (SEQ ID NO:6) (25 μg in saline) in the left or right ear respectively. The DTH response is determined by measurement of the ear thickness 48 hours later and expressed as increase in ear thickness (mm) of experimental ear compared to that of the control ear. Individual animal sera are collected for measurement of antibody on day 28, 42, 63 and 77. Sera from individual animals and group pools are evaluated for specific anti-mH antibody, for total antibody, IgG1, IgG2a and IgG3 antibody isotype and cross clade titer at selected time points as indicated.
The results of an isotype analysis of day 42 test bleedings with G′-mH (SEQ ID NO:37), G-mH (SEQ ID NO:38), J-mH (SEQ ID NO:39), F-mH (SEQ ID NO:40) and F-HGP-30 (SEQ ID NO:41), are shown in Table 1.
An isotype analysis for pools of day 28 test bleedings G-mH, G′-mH and m-HGP-30/KLH using either MPL S/E or ISA51 as adjuvant, are shown in Table 3.

[1] = group without '(with MPL)' (ISA51)

Question: With “NGQ EEK AGV VST GLI GGG ATL YSV HQR IDV KDT KEA LEK IEE EQN KS (DGQEEKAGVVSTGLIGGGEAQNTTYL) [SEQ ID NO: 58, Peptide G linked by GGG spacer to modified HGP-30 (mH)]” as the substance, how does the “Ig1, serial dilution 1:12800” value [1] read?
Answer: 0.009

Question: What about the “Ig1, serial dilution 1:51200” value [1] of the same substance?
Answer: 0.014

Question: What about the “Ig1, serial dilution 1:204800” value [1] of the same substance?
Answer: 0.000

Question: What about the “Ig2a, serial dilution 1:200” value [1] of the same substance?
Answer: 0.000

Question: And the “Ig2a, serial dilution 1:800” value [1]?
Answer: 0.015

Question: What about the “Ig2a, serial dilution 1:3200” value [1] of the same substance?
Answer: 0.000

Question: And the “Ig2a, serial dilution 1:12800” value [1]?
Answer: 0.003

Question: What about the “Ig2a, serial dilution 1:51200” value [1] of the same substance?
Answer: 0.006

Question: What about the “Ig2a, serial dilution 1:204800” value [1] of the same substance?
Answer: 0.000

Question: What about the “Ig2b, serial dilution 1:200” value [1] of the same substance?
Answer: 0.017

Question: And the “Ig2b, serial dilution 1:800” value [1]?
Answer: 0.000

Question: And the “Ig2b, serial dilution 1:3200” value [1]?
Answer: 0.004

Question: And the “Ig2b, serial dilution 1:12800” value [1]?
Answer: 0.001

Question: What about the “Ig2b, serial dilution 1:51200” value [1] of the same substance?
Answer: 0.000

Question: What about the “Ig2b, serial dilution 1:204800” value [1] of the same substance?
Answer: 0.000

Question: What about the “Ig3, serial dilution 1:200” value [1] of the same substance?
Answer: 0.009

Question: And the “Ig3, serial dilution 1:800” value [1]?
Answer: 0.002

Question: And the “Ig3, serial dilution 1:3200” value [1]?
Answer: 0.000

Question: And the “Ig3, serial dilution 1:12800” value [1]?
Answer: 0.000

Question: What about the “Ig3, serial dilution 1:51200” value [1] of the same substance?
Answer: 0.000

Question: And the “Ig3, serial dilution 1:204800” value [1]?
Answer: 0.000

Question: And the “Ig1, serial dilution 1:200” value (with MPL)?
Answer: 0.103

Question: What about the “Ig1, serial dilution 1:800” value (with MPL) of the same substance?
Answer: 0.022

Question: And the “Ig1, serial dilution 1:3200” value (with MPL)?
Answer: 0.003

Question: What about the “Ig1, serial dilution 1:12800” value (with MPL) of the same substance?
Answer: 0.000

Question: And the “Ig1, serial dilution 1:51200” value (with MPL)?
Answer: 0.000

Question: What about the “Ig1, serial dilution 1:204800” value (with MPL) of the same substance?
Answer: 0.000

Question: And the “Ig2a, serial dilution 1:200” value (with MPL)?
Answer: 0.248

Question: What about the “Ig2a, serial dilution 1:800” value (with MPL) of the same substance?
Answer: 0.048

Question: And the “Ig2a, serial dilution 1:3200” value (with MPL)?
Answer: 0.000

Question: And the “Ig2a, serial dilution 1:12800” value (with MPL)?
Answer: 0.000

Question: What about the “Ig2a, serial dilution 1:51200” value (with MPL) of the same substance?
Answer: 0.002

Question: And the “Ig2a, serial dilution 1:204800” value (with MPL)?
Answer: 0.000

Question: What about the “Ig2b, serial dilution 1:200” value (with MPL) of the same substance?
Answer: 0.147

Question: And the “Ig2b, serial dilution 1:800” value (with MPL)?
Answer: 0.026

Question: What about the “Ig2b, serial dilution 1:3200” value (with MPL) of the same substance?
Answer: 0.022

Question: What about the “Ig2b, serial dilution 1:12800” value (with MPL) of the same substance?
Answer: 0.006

Question: What about the “Ig2b, serial dilution 1:51200” value (with MPL) of the same substance?
Answer: 0.007

Question: And the “Ig2b, serial dilution 1:204800” value (with MPL)?
Answer: 0.018

Question: And the “Ig3, serial dilution 1:200” value (with MPL)?
Answer: 0.265

Question: And the “Ig3, serial dilution 1:800” value (with MPL)?
Answer: 0.044

Question: What about the “Ig3, serial dilution 1:3200” value (with MPL) of the same substance?
Answer: 0.006

Question: And the “Ig3, serial dilution 1:12800” value (with MPL)?
Answer: 0.001

Question: What about the “Ig3, serial dilution 1:51200” value (with MPL) of the same substance?
Answer: 0.000

Question: And the “Ig3, serial dilution 1:204800” value (with MPL)?
Answer: 0.000
